Key:
[1] = Dynamic thermostability of stabilized resin on a plastograph, Compound C; conditions: Compounds C and F, 190° C
Experimental: The dynamic thermostability of resins containing respectively 2-(4'-dodecyloxy-phenyl)-indole and 2-phenyl-indole as stabilizers was compared by using the Compounds numbered hereunder:
No. 609: Compound C with 2-phenyl-indole as Stabilizer
No. 675: Compound C with Stabilizer 8
The tests were performed on a plastograph, working at a temperature of 190° C, turning at a speed of 60 r.p.m. and containing a charge of 30 g of gelled material.
Two curves were drawn namely:
a decomposition curve giving the value of the resistant torque (m kg) in relation to time.
From this curve, two important results were obtained: the minimal resistant torque and the time of decomposition.
a curve giving the self-heating time in relation to temperature.
The self-heating time is defined by the moment when the temperature of the sheet exceeds the temperature of the plastograph (190° C).

[2] = Sublimation of the stabilizers; type: physicochemical; conditions: 120° C, 15 Torr, 150 min
Description: A sample of the substance to be tested was introduced into a test tube and heated under reduced pressure. The fraction of sublimated substance was recovered on a mobile cold wall.
After a certain period of time, the sublimated substance was weighed and the result expressed as a percentage of the weight of the starting-material.
The results obtained can only be of relative value, enabling a comparison to be made between two products tested under the same conditions.
Operating conditions (chosen at random).
Temperature of heating 120° C
Temperature of the cold wall
Duration of heating 150 minutes

[3] = Acute toxicity by oral route in mice (LD50); type: in vivo; conditions: mouse, in vivo, gummy suspension
Experimental: (§1) The study of the acute toxicity of the stabilizers listed below was carried out by determining the dose of substance which provoked the death of 50% of the treated animals (LD50). A gummy suspension of the substance under study was administered by oral route to groups of at least ten mice and the following results were observed: […]

[4] = tested on: mice; assay: Acute toxicity by oral route in mice (LD50); type: in vivo; conditions: LD50 study
Experimental: as §1

[5] = Static thermostability of stabilized resin, simplified method (GARDNER sub-scale), Compound C; conditions: 210° C
Experimental: (§2) The stabilizing power of the substances of the invention was studied from two points of view:
(§3) These studies were performed with six different formulae of vinyl resins (hereinafter referred to as Compounds).
(§4) The different compounds were mixed and calendered in a mixer of which the cylinders were heated to 160° C. The rigid sheets so obtained were then heated in an oven to a temperature between 180° C and 215° C, until incipient carbonization.
(§5) A stove with rotating drums, ventilated and equipped with a thermostat was used for this operation. In the trials described hereunder, the behaviour of a sheet containing the stabilizer to be tested was compared to that of a sheet of the same formula but containing 2-phenyl-indole as stabilizer.
(§6) 2. It is also possible to use a simplified method which is more rapid and with which valid results are also obtained: a reference scale is drawn up with sheets of thermally treated polyvinyl chloride, of which the colourations have been definitely determined in GARDNER degrees as above. A GARDNER sub-scale is thus obtained in polyvinyl chloride sheets which can be directly compared to the sheets to be tested without using the comparator.

[6] = type: physicochemical
Description: The thermostability of Stabilizer 8 and that of 2-phenyl-indole were studied by differential thermoanalysis and by thermogravimetric analysis. […] Diagrams were made out for 2-phenyl-indole (i) and Compound 8 (ii) and enabled the following conclusions to be drawn: […]

[7] = Static thermostability of stabilized resin, GARDNER Scale Comparator, Compound B; conditions: 210° C
Experimental: as §2, §3, §4, §5
1. The colouration of the sheets, of which samples were removed from the stove at fixed intervals was compared to a standard scale of colouration, known as the GARDNER Scale, and expressed in terms of the reference figures of the GARDNER Scale.
Comparisons were made with a GARDNER Scale Comparator which contains 18 filters of coloured glass and which offers the possibility of observing by transparency and in a limited field of view both the sheet and the reference filters.
Compound B was used and the sheets obtained presented the following characteristics: […]

[8] = Static thermostability of stabilized resin, simplified method (GARDNER sub-scale), Compound D; conditions: 185° C
Experimental: as §2, §3, §4, §5, §6

[9] = Sticking of the stabilized material; conditions: cylinders at 210° C, 3 min mixing / 3 min rest
Experimental: Compounds Nos. 609 and 675 were placed in a mixer of the type previously used for studying static thermostability with cylinders at a fixed temperature of 210° C.
They were submitted to alternate periods of 3 minutes of mixing and 3 minutes of rest.

[10] = Static thermostability of stabilized resin, simplified method (GARDNER sub-scale), Compound E; conditions: 185° C
Experimental: as §2, §3, §4, §5, §6

[11] = Thermostability of the stabilizers: thermogravimetric analysis; type: physicochemical
Experimental: The thermostability of Stabilizer 8 and that of 2-phenyl-indole were studied by differential thermoanalysis and by thermogravimetric analysis.
This analysis necessitated two series of trials carried out under air and under inert gas (Argon) in order to eliminate any possible effect of oxygen. The results obtained were identical.
The temperature increase rate was 80° C/hour. Thermograms were drawn up under air for both 2-phenyl-indole (i) and for Stabilizer 8 (ii) and enabled the following conclusion to be drawn: […]

CCCCCCCCCCCCOc1ccc(-c2cc3ccccc3[nH]2)cc1 [Stabilizer 8, 2-(4'-dodecyloxy-phenyl)-indole]
Dynamic thermostability compared with 2-phenyl-indole [1]: slight superiority over 2-phenyl-indole | Sublimation relative to 2-phenyl-indole [2]: forty times less than that of 2-phenyl-indole | Percentage of sublimated substance ([2]; cold wall 13° C): 0.6% | LD50 [3]: > 5000 mg/kg | Toxic symptoms [4]: none | Colouration of sheet (GARDNER sub-scale) ([5]; 0 min): 1 GARDNER degrees | Colouration of sheet (GARDNER sub-scale) ([5]; 10 min): 1.5 GARDNER degrees | Colouration of sheet (GARDNER sub-scale) ([5]; 20 min): 2 GARDNER degrees | Colouration of sheet (GARDNER sub-scale) ([5]; 30 min): 2.5 GARDNER degrees | Colouration of sheet (GARDNER sub-scale) ([5]; 40 min): < 3 GARDNER degrees | Colouration of sheet (GARDNER sub-scale) ([5]; 50 min): 3 GARDNER degrees | Colouration of sheet (GARDNER sub-scale) ([5]; 55 min): 3 GARDNER degrees | Colouration of sheet (GARDNER sub-scale) ([5]; 60 min): 3.5 GARDNER degrees | Static thermostability compared with 2-phenyl-indole ([5]; after 60 min): superior as a stabilizer to 2-phenyl-indole | Melting temperature [6]: 203 °C | Start of decomposition ([6]; 2° C/minute): 300 °C | Colouration of sheet (GARDNER Scale) ([7]; 0 min): 1 GARDNER degrees | Colouration of sheet (GARDNER Scale) ([7]; 3 min): 1 GARDNER degrees | Colouration of sheet (GARDNER Scale) ([7]; 6 min): 2 GARDNER degrees | Colouration of sheet (GARDNER Scale) ([7]; 9 min): 3 GARDNER degrees | Colouration of sheet (GARDNER Scale) ([7]; 12 min): 3 GARDNER degrees | Colouration of sheet (GARDNER Scale) ([7]; 15 min): 5 GARDNER degrees | Colouration of sheet (GARDNER Scale) ([7]; 18 min): 7 GARDNER degrees | Colouration of sheet (GARDNER Scale) ([7]; 21 min): 11 GARDNER degrees | Static thermostability compared with 2-phenyl-indole ([7]; 21 min): clearly superior to 2-phenyl-indole | Thickness of sheet ([7]; after 21 min): 1.30 mm | State of sheet ([7]; after 24 min): burnt | Colouration given to the co-polymer [8]: less yellow-coloured than that containing 2-phenyl-indole | Static thermostability compared with 2-phenyl-indole [8]: superior to 2-phenyl-indole | Colouration of sheet (GARDNER sub-scale) ([8]; 0 min): < 1 GARDNER degrees | Colouration of sheet (GARDNER sub-scale) ([8]; 10 min): < 2 GARDNER degrees | Colouration of sheet (GARDNER sub-scale) ([8]; 20 min): 2 GARDNER degrees | Colouration of sheet (GARDNER sub-scale) ([8]; 30 min): < 3 GARDNER degrees | Sticking of the stabilized material [9]: comparable | Colouration of sheet (GARDNER sub-scale) ([10]; 0 min): < 1 GARDNER degrees | Colouration of sheet (GARDNER sub-scale) ([10]; 10 min): < 1 GARDNER degrees | Colouration of sheet (GARDNER sub-scale) ([10]; 20 min): < 2 GARDNER degrees | Colouration of sheet (GARDNER sub-scale) ([10]; 30 min): < 3 GARDNER degrees | Start of weight loss ([11]; 80° C/hour, under air): about 295 °C | Thermostability of the stabilizer compared with 2-phenyl-indole ([11]; thermogravimetric analysis and differential thermoanalysis): greater thermostability than 2-phenyl-indole

From patent US4057530A, “2-Phenyl-indole derivatives and process for preparing the same” (priority 1974, dated 1977)
